Assay results reported in patent publication US5521061A, “Enhancement of probe signal in nucleic acid-mediated in-situ hybridization studies” (Aprogenex, Inc., priority 1992, dated 1996).

Key:
Amniotic cells = assay: Slide in situ hybridization, effect of DMSO (Example 1), amniotic cells, Y probe; format: cell-based, human; conditions: assay solution HC + 10% DMSO
Description: (§1) The Y probe (also referred to as the HYR probe) was a collection of oligonucleotides specific for human Y chromosome α-satellite DNA repeated sequences; where the probe was to be detected under a fluorescent microscope, it was labeled at its 5' end, via an Aminolink linker molecule (aminohexyl, from Applied Biosystems, Inc.), to a Texas Red Moiety.
Amniotic cells were obtained by standard amniocentesis procedure.
(§2) Slide in situ Cell Preparation and Hybridization Protocol
(§3) 1) Cells were suspended in a fixative (3 vol ethanol plus 1 vol methanol) and transferred to glass slides by centrifugation using a Cytospin apparatus.
(§4) 2) The assay solution (consisting of the hybridization cocktail HC alone or mixed with a compound or compounds being tested as an enhancer) with the DNA probe (25 ul) was placed over the cells and covered with a coverslip.
(§5) 3) The slide was heated at 90° C. for 5 minutes for DNA denaturation, then incubated at 46° C. for 30 minutes for hybridization.
(§6) 4) Cells were washed once with the wash solution #1, which was equilibrated at 42° C. Then cells were washed ten times with wash solution #2, which was equilibrated at 42° C.
(§7) 5) Mounting solution (50% glycerol (v/v) in 1×PBS plus the nuclear stain Hoechst, (#33258; 1 ug/ml) was placed on the cells and covered with a coverslip. […]

Hepg 2 cells = assay: Slide in situ hybridization, DMSO plus one additional compound (Example 2), HYR probe; format: cell-based, human
Experimental: as §2, §3, §4, §5, §6
5) Mounting solution (50% glycerol (v/v) in 1×PBS plus the nuclear stain Hoechst, (#33258; 1 ug/ml) was placed on the cells and covered with a coverslip.
6) The hybridization signal was observed under an Olympus BH10 microscope with fluorescent capabilities using a rhodamine derivative filters (excitation wavelength of 567 nm, emission wavelength of 584 nm).
The inclusion of DMSO in an in situ assay solution increased the permeation of the nucleic acid probes into the cells and gave hybridization signal in over 95% of the cells. In this Example, we show the effect of adding, in addition to DMSO, 10 percent (v/v) of an additional compound to the assay solution. The additional compounds added were: squalane (an aliphatic alkane), dodecyl alcohol (an alcohol), beta-cyclodextrin (a sugar), isopropyl palmitate (a fatty acid ester), 1,2, propanediol (an alcohol), pyrrolidinone (a lactam) and hexamethyldisiloxane (an organic silane).
In this Example, the hybridization cocktail consisted of nine volumes of HC-DMSO plus one volume of an additional compound. In the control sample, one volume of water was added instead of one volume of additional compound. As a result, in all samples, the concentration of DMSO in the cocktail was 9 percent (v/v).
The Slide In Situ Cell Preparation and Hybridization protocol was followed. The cells used were Hepg 2 cells. The probe used was an HYR probe specific for human Y chromosome α-satellite DNA repeated sequences; at its 5' end, via an Aminolink linker molecule, the probe was linked to a Texas Red moiety. A signal intensity of 4 was assigned to the slide in which the assay solution was HC plus 10% DMSO (control slide) and all other slides were rated 1, 2, 3 or 4 in comparison to the control slide, depending on whether the intensity was 1, 2, 3, or 4 times that of the control slide, respectively.
The results are an average of four independent experiments.

Hepg2 cells = assay: Slide in situ hybridization, effect of DMSO (Example 1), Hepg2 cells, Y probe; format: cell-based, human; conditions: assay solution HC + 10% DMSO
Description: Hepg2 cells were a human cell line (American Type Culture Collection number, ATCC-HB8065).
In this Example, the slide in situ cell preparation and hybridization protocol was followed.

[1] = test system: WBC cells (white blood cells); assay: Slide in situ hybridization, effect of DMSO (Example 1), WBC cells, Y probe; format: cell-based, human; conditions: assay solution HC + 10% DMSO
Description: as §1
WBC cells (white blood cells) were obtained from a healthy human.
as §2, §3, §4, §5, §6, §7

Hela cells = assay: Liquid in situ hybridization with flow cytometry, DMSO plus additional compound (Example 4), 28S RNA and NR probes; format: cell-based
Description: A Coulter Profile II flow cytometer was used for flow cytometry. With FITC as the probe dye, the filter for LFL3 was a 635 nm long pass filter and the filter for LFL1 was a 540 bp filter; the excitation wavelength was 488 nm. PMT1 and PMT3 settings were adjusted as required. A typical useful setting when fluorescein is the dye moiety is to have a PMT1 setting of 1100, a PMT3 setting of 900, and color compensation (PMT1, PMT3) of 15 percent.
Liquid in Situ Cell Preparation and Hybridization Protocol
1. Cells were fixed in solution F, then resuspended in 2x SSC.
2. The cells were spun out of solution and resuspended in an assay solution (consisting of the hybridization cocktail HC alone or in combination with a compound or compounds being tested as an enhancer.)
3. After 30 min. at 42° C., the cells were washed in wash solution #1 preheated to 42° C. by centrifuging them out of the assay solution.
4. Cells were next washed in wash solution #2 preheated to 42° C.
5. Cells were resuspended in a 1X PBS solution containing 0.002% trypan blue as a counterstain.
6. Cells were run on a flow cytometer and a "Count vs. LFL1" histogram was generated. ("Count" refers to cell count.) This histogram was used as the basis for determining the mean LFL1.
The effect on probe signal intensity of adding, in addition to DMSO, additional compounds to the assay solution was determined in an in situ liquid hybridization assay. The data was analyzed by flow cytometry.
The Liquid In Situ Cell Preparation and Hybridization Protocol was followed. The cells used were Hela cells. The probes used were a 28S RNA probe (SEQ ID NO: 1) and an NR probe.
The 28S RNA probe (SEQ ID NO: 1) is a target-specific probe specific for ribosomal RNA fluorescence obtained with it represents the sum of fluorescence from target-bound probe, non-specifically bound probe and autofluorescence from cellular molecules. The NR probe (SEQ ID NO: 2) is specific for a plant nucleic acid sequence and, in the current Example, the fluorescence obtained with it represent the sum of fluorescence from non-specifically bound probe and autofluorescence.
In this experiment, the hybridization cocktail consisted of nine volumes of HC-DMSO plus one volume of additional compound. In the control sample, one volume of water replaced the one volume of additional compound. As a result, in all samples, the concentration of DMSO was 9 percent (v/v).
The ratio, 28S/NR, is the ratio of the mean LFL1 observed with the 28S RNA probe (SEQ ID NO: 1) to the mean LFL1 observed with the NR probe (SEQ ID NO: 2). The results in the "28S RNA probe" and "NR probe" columns give the mean LFL1 observed with the 28S RNA and NR probes, respectively (SEQ ID NO: 1 and SEQ ID NO: 2, respectively).

[2] = test system: Human female white blood cells (karyotype XX); assay: Signal enhancers in the mounting solution after in situ hybridization (Example 6), HXR probes, fluorescent microscope; format: cell-based; conditions: one volume compound plus 9 volumes mounting solution; rhodamine HXR probes; water control = 1
Experimental: After the in situ hybridization step, the cells were washed and then modified mounting solution was added and cells were observed under the microscope for fluorescence signal. Modified mounting solution was 9 volumes of mounting solution and one volume of additional compound, which was the compound being tested for its ability to be a signal enhancer. Mounting solution consisted of 0.1% 1,4 diphenylamine (antifade) in 50% glycerol (v/v), and nuclear stain Hoechst (#33258; 1 ug/ml).
Human female white blood cells (karyotype XX) were hybridized at 85° C. for 15 minutes with female chromosome HXR probes labelled with a rhodamine fluor. Cells were washed with wash buffers #1 and #2, and then suspended in a modified mounting solution. The additional compound in the modified mounting solution was varied; as a control, water was used as the additional compound. The signal intensity was observed under the fluorescent microscope.

[3] = test system: Human female white blood cells (karyotype XX); assay: as above; format: cell-based; conditions: not further described

SMILES | Fluorescent Signal intensity (Scale of 1 to 4) (Amniotic cells) | Cells giving hybridization signal (Hepg 2 cells; DMSO included in in situ assay solution, cells not specified (opening statement of Example 2)) | Fluorescent Signal intensity (Scale of 1 to 4) (Hepg2 cells) | Fluorescent Signal intensity (Scale of 1 to 4) [1] | Optimal DMSO concentration for signal brightness (Hela cells; DMSO alone, nine percent) | Fluorescent signal (Scale of 1 to 4) (Hepg 2 cells; 10% (v/v) additional compound with 9% DMSO, slide rating x 0.5, water control = 2, average of four experiments) | Signal Intensity Scale of 1 to 4 [2] | 28S RNA Probe, mean LFL1 (Hela cells; 10% additional compound with 9% DMSO, FITC 28S RNA probe, water control 6.070, average of four experiments) | NR Probe, mean LFL1 (Hela cells; 10% additional compound with 9% DMSO, FITC NR probe (non-specific binding and autofluorescence), water control 0.137) | Ratio 28S RNA/NR (ratio of mean LFL1) (Hela cells; 10% additional compound with 9% DMSO, water control 44) | Effect on signal in an earlier experiment [3]
C[S+](C)[O-] [DMSO, dimethyl sulfoxide] | 4 | over 95% | 4 | 4 | at or close to the optimal DMSO concentration for signal brightness | – | – | – | – | – | –
CCCCCCCCCCCCO [dodecyl alcohol] | – | – | – | – | – | 2 | 4 | 4.804 | 0.142 | 34 | decrease in signal
